Values joined by “and” are separate entries in the source; they are usually repeats but may differ in a detail not shown here. Equal entries are not always repeated. Inconclusive results and toxic doses are left out. Cut-off read from the data, not from the text of the source: active = T/C of 150% or more; inactive = T/C below 125%.
Test system: L1210 leukemia ip in BDF1 mice, survival T/C
Assay: NCI In Vivo Anticancer Drug Screen. Data for tumor model L1210 Leukemia (intraperitoneal) in B6D2F1 (BDF1) mice
Settings: endpoint: mean survival time, higher = longer survival
Procedure, shortened: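 Tumor was transplanted into mice, which were then dosed with test compound or vehicle alone. Survival was recorded for each group, and the treated figure was expressed relative to the control figure.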

[1] = dose: 100.0 mg/kg/injection, schedule: Q01DX001 (ip), vehicle: saline
[2] = dose: 200.0 mg/kg/injection, schedule: Q01DX001 (ip), vehicle: saline
[3] = dose: 100.0 mg/kg/injection, schedule: Q01DX009 (ip), vehicle: Klucel (hydroxypropylcellulose) (HPC)
[4] = dose: 100.0 mg/kg/injection, schedule: Q04DX003 (ip), vehicle: Klucel (hydroxypropylcellulose) (HPC)
[5] = dose: 200.0 mg/kg/injection, schedule: Q01DX009 (ip), vehicle: Klucel (hydroxypropylcellulose) (HPC)
[6] = dose: 200.0 mg/kg/injection, schedule: Q04DX003 (ip), vehicle: Klucel (hydroxypropylcellulose) (HPC)
[7] = dose: 400.0 mg/kg/injection, schedule: Q01DX009 (ip), vehicle: Klucel (hydroxypropylcellulose) (HPC)
[8] = dose: 400.0 mg/kg/injection, schedule: Q04DX003 (ip), vehicle: Klucel (hydroxypropylcellulose) (HPC)
[9] = dose: 100.0 mg/kg/injection, schedule: Q01DX001 (ip), vehicle: other
[10] = dose: 200.0 mg/kg/injection, schedule: Q01DX001 (ip), vehicle: other
[11] = dose: 400.0 mg/kg/injection, schedule: Q01DX001 (ip), vehicle: other

Measured: T/C

Cn1ccc(CCl)n1
inactive: dose: 100.0 mg/kg/injection, schedule: Q04DX003 (ip), vehicle: saline 95 % of control | dose: 200.0 mg/kg/injection, schedule: Q04DX003 (ip), vehicle: saline 97 % of control

CC(=O)C1=C(C)NC(C)=C(C(C)=O)C1C
inactive: dose: 55.0 mg/kg/injection, schedule: Q01DX Z (ip), vehicle: saline 97 % of control | dose: 83.0 mg/kg/injection, schedule: Q01DX Z (ip), vehicle: saline 95 % of control | dose: 125.0 mg/kg/injection, schedule: Q01DX Z (ip), vehicle: saline 100 % of control

CC(C)C12NC(=O)NC(=O)N1CCS2 (stereo not given)
inactive: dose: 50.0 mg/kg/injection, schedule: Q01DX001 (ip), vehicle: saline 93 % of control | [1] 96 % of control | [2] 100 % of control | dose: 400.0 mg/kg/injection, schedule: Q01DX001 (ip), vehicle: saline 100 % of control

CC(C)OC(=O)C1OC1c1ccccc1 (stereo not given)
inactive: dose: 100.0 mg/kg/injection, schedule: Q04DX002 (ip), vehicle: saline with Tween-80 109 % of control | dose: 200.0 mg/kg/injection, schedule: Q04DX002 (ip), vehicle: saline with Tween-80 102 % of control | dose: 400.0 mg/kg/injection, schedule: Q04DX002 (ip), vehicle: saline with Tween-80 109 % of control

CCOC(=O)C1OC(n2cnc3c(N)ncnc32)C(O)C1O (stereo not given)
inactive: dose: 100.0 mg/kg/injection, schedule: Q01DX005 (ip), vehicle: saline 98 % of control | dose: 200.0 mg/kg/injection, schedule: Q01DX005 (ip), vehicle: saline 97 % of control

CCOC(=O)C1(C(=O)OCC)CCC1
inactive: [1] 103 % of control | [2] 94 % of control

O=[N+]([O-])c1ccc2c(c1)Cc1cc(Br)ccc1-2
inactive: [3] 106 % of control | [4] 92 % of control | [5] 95 % of control | [6] 91 % of control | [7] 98 % of control | [8] 102 % of control

O=C(CCCC(=O)N/N=C/c1ccc(O)c(O)c1)N/N=C\c1ccc(O)c(O)c1
inactive: dose: 50.0 mg/kg/injection, schedule: Q01DX001 (ip), vehicle: other 104 % of control | [9] 93 % of control | [10] 98 % of control | [11] 91 % of control

O=C1OC(C(O)CO)C(=O)C1=O (stereo not given)
inactive: dose: 50.0 mg/kg/injection, schedule: Q01DX009 (ip), vehicle: saline with Tween-80 97 % of control | dose: 100.0 mg/kg/injection, schedule: Q01DX001 (ip), vehicle: water 102 % of control | dose: 100.0 mg/kg/injection, schedule: Q01DX009 (ip), vehicle: saline with Tween-80 97 % of control | dose: 100.0 mg/kg/injection, schedule: Q01DX009 (ip), vehicle: water 105 % of control | dose: 100.0 mg/kg/injection, schedule: Q04DX003 (ip), vehicle: water 104 % of control | dose: 200.0 mg/kg/injection, schedule: Q01DX001 (ip), vehicle: water 107 % of control | dose: 200.0 mg/kg/injection, schedule: Q01DX009 (ip), vehicle: saline with Tween-80 101 % of control | dose: 200.0 mg/kg/injection, schedule: Q01DX009 (ip), vehicle: water 106 % of control | dose: 200.0 mg/kg/injection, schedule: Q04DX003 (ip), vehicle: water 109 % of control | dose: 400.0 mg/kg/injection, schedule: Q01DX001 (ip), vehicle: water 107 % of control | dose: 400.0 mg/kg/injection, schedule: Q01DX009 (ip), vehicle: water 116 % of control | dose: 400.0 mg/kg/injection, schedule: Q04DX003 (ip), vehicle: water 115 % of control | dose: 800.0 mg/kg/injection, schedule: Q01DX001 (ip), vehicle: water 102 % of control | dose: 800.0 mg/kg/injection, schedule: Q01DX009 (ip), vehicle: water 111 % of control | dose: 800.0 mg/kg/injection, schedule: Q04DX003 (ip), vehicle: water 121 % of control

CNC(=O)Nc1ccc(OC)cc1OC
inactive: [3] 105 % of control | [4] 106 % of control | [5] 94 % of control | [6] 111 % of control | [7] 98 % of control | [8] 103 % of control

CC1CN1P(=O)(OCCC#N)N1CC1C (stereo not given)
inactive: dose: 50.0 mg/kg/injection, schedule: Q01DX009 (ip), vehicle: saline 99 % of control and 111 % of control | dose: 100.0 mg/kg/injection, schedule: Q01DX009 (ip), vehicle: saline 110 % of control and 113 % of control | dose: 132.0 mg/kg/injection, schedule: Q04DX003 (ip), vehicle: acetone 109 % of control | dose: 200.0 mg/kg/injection, schedule: Q01DX009 (ip), vehicle: saline 108 % of control | dose: 400.0 mg/kg/injection, schedule: Q01DX009 (ip), vehicle: saline 96 % of control

Cc1n(CCBr)c([N+](=O)[O-])c[n+]1C1N=C(c2ccccc2)c2cc(Cl)ccc2NC1=O (stereo not given)
inactive: [4] 101 % of control | [6] 94 % of control

O=C(Oc1ccccc1[N+](=O)[O-])c1ccc(Cl)c(Cl)c1
inactive: dose: 100.0 mg/kg/injection, schedule: Q04DX002 (ip), vehicle: Klucel (hydroxypropylcellulose) (HPC) 90 % of control | dose: 200.0 mg/kg/injection, schedule: Q04DX002 (ip), vehicle: Klucel (hydroxypropylcellulose) (HPC) 97 % of control | dose: 400.0 mg/kg/injection, schedule: Q04DX002 (ip), vehicle: Klucel (hydroxypropylcellulose) (HPC) 100 % of control

CCCCOC(=O)c1ccc(NC(=O)Nc2ccc(SC)cc2)cc1
inactive: [3] 95 % of control | [5] 95 % of control | [7] 95 % of control

CCCCC1(C(C)C)C(=O)NC(=O)NC1=O
inactive: dose: 75.0 mg/kg/injection, schedule: Q01DX001 (ip), vehicle: saline 102 % of control | dose: 150.0 mg/kg/injection, schedule: Q01DX001 (ip), vehicle: saline 96 % of control

CC(C)C1CCC2(CC1)CC(=O)N(CCC[N+](C)(C)C)C(=O)C2
inactive: dose: 50.0 mg/kg/injection, schedule: Q01DX001 (ip), vehicle: carboxymethylcellulose (CMC) 96 % of control

CCOC(=O)C1C(C#N)C2OC1C(Cl)C2Cl (stereo not given)
inactive: [3] 100 % of control | [5] 102 % of control | [7] 94 % of control

CCCCCCCCCCCCCCCC(=O)NOCc1cscn1
inactive: [9] 104 % of control | dose: 100.0 mg/kg/injection, schedule: Q04DX003 (ip), vehicle: acetone 93 % of control | [10] 94 % of control | dose: 200.0 mg/kg/injection, schedule: Q04DX003 (ip), vehicle: acetone 93 % of control | [11] 98 % of control | dose: 400.0 mg/kg/injection, schedule: Q04DX003 (ip), vehicle: acetone 98 % of control

CCOC(=O)C(C)NC(=O)C(C)NC(=O)OCc1ccccc1 (stereo not given)
inactive: dose: 100.0 mg/kg/injection, schedule: Q01DX009 (ip), vehicle: gum acacia 101 % of control | dose: 100.0 mg/kg/injection, schedule: Q04DX003 (ip), vehicle: gum acacia 103 % of control | dose: 200.0 mg/kg/injection, schedule: Q01DX009 (ip), vehicle: gum acacia 93 % of control | dose: 200.0 mg/kg/injection, schedule: Q04DX003 (ip), vehicle: gum acacia 101 % of control | dose: 400.0 mg/kg/injection, schedule: Q01DX009 (ip), vehicle: gum acacia 87 % of control | dose: 400.0 mg/kg/injection, schedule: Q04DX003 (ip), vehicle: gum acacia 92 % of control

CSc1nc(Cl)c(Cl)c(SC)n1 (tested in a mixture with another compound)
inactive: dose: 50.0 mg/kg/injection, schedule: Q01DX009 (ip), vehicle: Klucel (hydroxypropylcellulose) (HPC) 87 % of control | [3] 87 % of control
